From US11020395B2, “Cycloalkyl substituted triazole compounds as agonists of the APJ receptor” (AMGEN INC., priority 2016, dated 2021) come the findings set out here.

Chain of human APJ receptor (P35414 whole entry): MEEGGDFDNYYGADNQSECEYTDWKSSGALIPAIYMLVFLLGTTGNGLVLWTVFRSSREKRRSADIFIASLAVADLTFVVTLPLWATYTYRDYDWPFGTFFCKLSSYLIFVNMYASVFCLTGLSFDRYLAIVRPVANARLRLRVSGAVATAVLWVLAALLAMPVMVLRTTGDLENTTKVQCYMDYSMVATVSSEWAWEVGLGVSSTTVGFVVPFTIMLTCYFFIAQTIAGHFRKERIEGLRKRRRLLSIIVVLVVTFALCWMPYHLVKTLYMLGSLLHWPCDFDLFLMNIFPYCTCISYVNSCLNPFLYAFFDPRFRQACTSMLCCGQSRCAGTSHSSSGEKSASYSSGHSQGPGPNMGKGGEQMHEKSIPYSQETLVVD

This assay addresses human APJ receptor (Homo sapiens (Human), UniProt P35414). Briefly: [35S]GTPγS binding assay on membranes from CHO cells stably expressing human APJ receptor. As to conditions: [35S]GTPγS SPA, read-out: Activity hAPJ SPA EC50 IP. The class given is biochemical. Summed up:
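Agonist-stimulated [35S]GTPγS binding measured on membranes of a stable human APJ CHO line, 90 min at room temperature, with GDP, MgCl2 and NaCl levels optimized beforehand. Means of independent runs fitted by non-linear regression to give EC50.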
Consider `COc1cccc(OC)c1-n1c(NS(=O)(=O)CCc2ncc(Cl)cn2)nnc1C1CCC1` [Example 210.0, 2-(5-chloro-2-pyrimidin-yl)-N-(5-cyclobutyl-4-(2,6-dimethoxyphenyl)-4H-1,2,4-triazol-3-yl)ethanesulfonamide], for which the EC50 amounted to 15 nM. The result for `CC(C)O[C@@H](c1ncc(Cl)cn1)[C@H](C)S(=O)(=O)Nc1nnc(C2CCC2)n1C1CCOCC1` [Example 211.0, (1S,2S)-1-(5-chloro-2-pyrimidinyl)-N-(5-cyclobutyl-4-(tetrahydro-2H-pyran-4-yl)-4H-1,2,4-triazol-3-yl)-1-(2-propanyloxy)-2-propanesulfonamide] reads 420 nM; that for `COc1cccc(OC)c1-n1c(NS(=O)(=O)[C@@H](C)[C@H](OC)c2ncc(Cl)cn2)nnc1C12CC(C1)C2` [Example 217.0], 7.4 nM. For the compound `COc1cccc(OC)c1-n1c(NS(=O)(=O)[C@@H](C)[C@@H](OC(C)C)c2ncc(C)cn2)nnc1[C@H]1C2CC1[C@@H]2O` [Example 228.0, (1S,2S)-N-(4-(2,6-dimethoxyphenyl)-5-(cis-4-hydroxybicyclo[1.1.1]pentan-2-yl)-4H-1,2,4-triazol-3-yl)-1-isopropoxy-1-(5-methylpyrimidin-2-yl)propane-2-sulfonamide and (1S,2S)-N-(4-(2,6-dimethoxyphenyl)-5-(trans-4-hydroxybicyclo[1.1.1]pentan-2-yl)-4H-1,2,4-triazol-3-yl)-1-isopropoxy-1-(5-methylpyrimidin-2-yl)propane-2-sulfonamide], the EC50 was found to be 190 nM. The result for `COc1cccc(OC)c1-n1c(NS(=O)(=O)[C@@H](C)[C@H](OC)c2ncc(Cl)cn2)nnc1C1CC2(CCC2)C1` [Example 236.0, (1R,2S)-1-(5-chloro-2-pyrimidinyl)-N-(4-(2,6-dimethoxyphenyl)-5-(spiro[3.3]heptan-2-yl)-4H-1,2,4-triazol-3-yl)-1-methoxy-2-propanesulfonamide] reads 0.99 nM; that for `COc1ncnc(OC)c1-n1c(NS(=O)(=O)[C@@H](C)[C@H](OC)c2ncc(Cl)cn2)nnc1C1CC(OC)(OC)C1` [Example 238.0, (1R,25)-1-(5-chloro-2-pyrimidinyl)-N-(5-(3,3-dimethoxycyclobutyl)-4-(4,6-dimethoxy-5-pyrimidinyl)-4H-1,2,4-triazol-3-yl)-1-methoxy-2-propanesulfonamide], 120 nM; that for `COc1cccc(OC)c1-n1c(NS(=O)(=O)[C@@H](C)[C@H](OC)c2ncc(Cl)cn2)nnc1C1CC2(CC2)C1` [Example 239.0, (1R,2S)-1-(5-chloro-2-pyrimidinyl)-N-(4-(2,6-dimethoxyphenyl)-5-(spiro[2.3]hexan-5-yl)-4H-1,2,4-triazol-3-yl)-1-methoxy-2-propanesulfonamide], 0.64 nM.

`COc1ncnc(OC)c1-n1c(NS(=O)(=O)[C@@H](C)[C@H](OC)c2ncc(Cl)cn2)nnc1C1CC2(COC2)C1` [Example 240.0, (1R,2S)-1-(5-chloro-2-pyrimidinyl)-N-(4-(4,6-dimethoxy-5-pyrimidinyl)-5-(2-oxaspiro[3.3]heptan-6-yl)-4H-1,2,4-triazol-3-yl)-1-methoxy-2-propanesulfonamide]: the EC50 was determined as 71 nM. The result for `COc1cccc(OC)c1-n1c(NS(=O)(=O)[C@@H](C)[C@H](OC)c2ncc(Cl)cn2)nnc1C1CCCC1` [Example 241.0, (1R,25)-1-(5-chloro-2-pyrimidinyl)-N-(5-cyclopentyl-4-(2,6-dimethoxyphenyl)-4H-1,2,4-triazol-3-yl)-1-methoxy-2-propanesulfonamide] reads 1.2 nM; that for “(1R,2S)-1-(5-chloropyrimidin-2-yl)-N-(4-(2,6-dimethoxyphenyl)-5-((R)-2,2-dimethylcyclopropyl)-4H-1,2,4-triazol-3-yl)-1-methoxypropane-2-sulfonamide or (1R,2S)-1-(5-chloropyrimidin-2-yl)-N-(4-(2,6-dimethoxyphenyl)-5-((S)-2,2-dimethylcyclopropyl)-4H-1,2,4-triazol-3-yl)-1-methoxypropane-2-sulfonamide [Example 22.0]”, 0.29 nM; that for “(1R,2S)-1-(5-chloropyrimidin-2-yl)-N-(4-(2,6-dimethoxyphenyl)-5-((R)-3-oxocyclopentyl)-4H-1,2,4-triazol-3-yl)-1-methoxypropane-2-sulfonamide or (1R,2S)-1-(5-chloropyrimidin-2-yl)-N-(4-(2,6-dimethoxyphenyl)-5-((S)-3-oxocyclopentyl)-4H-1,2,4-triazol-3-yl)-1-methoxypropane-2-sulfonamide [Example 224.0]”, 38 nM. Regarding “(1R,2S)-1-(5-chloropyrimidin-2-yl)-N-(4-(2,6-dimethoxyphenyl)-5-((R)-3-oxocyclopentyl)-4H-1,2,4-triazol-3-yl)-1-methoxypropane-2-sulfonamide or (1R,2S)-1-(5-chloropyrimidin-2-yl)-N-(4-(2,6-dimethoxyphenyl)-5-((S)-3-oxocyclopentyl)-4H-1,2,4-triazol-3-yl)-1-methoxypropane-2-sulfonamide [Example 225.0]”, the EC50 was determined as 160 nM. “(1R,2S)-1-(5-chloropyrimidin-2-yl)-N-(4-(2,6-dimethoxyphenyl)-5-((S)-spiro[2.2]pentan-1-yl)-4H-1,2,4-triazol-3-yl)-1-methoxypropane-2-sulfonamide or (1R,2S)-1-(5-chloropyrimidin-2-yl)-N-(4-(2,6-dimethoxyphenyl)-5-((R)-spiro[2.2]pentan-1-yl)-4H-1,2,4-triazol-3-yl)-1-methoxypropane-2-sulfonamide [Example 222.0]”: the EC50 came out at 24 nM. Under “(1R,2S)-1-(5-chloropyrimidin-2-yl)-N-(4-(2,6-dimethoxyphenyl)-5-((S)-spiro[2.2]pentan-1-yl)-4H-1,2,4-triazol-3-yl)-1-methoxypropane-2-sulfonamide or (1R,2S)-1-(5-chloropyrimidin-2-yl)-N-(4-(2,6-dimethoxyphenyl)-5-((R)-spiro[2.2]pentan-1-yl)-4H-1,2,4-triazol-3-yl)-1-methoxypropane-2-sulfonamide [Example 223.0]” stands 1.2 nM; under “(1R,2S)-1-(5-chloropyrimidin-2-yl)-N-(4-(4,6-dimethoxypyrimidin-5-yl)-5-((R)-6-oxaspiro[2.5]octan-1-yl)-4H-1,2,4-triazol-3-yl)-1-methoxypropane-2-sulfonamide or (1R,2S)-1-(5-chloropyrimidin-2-yl)-N-(4-(4,6-dimethoxypyrimidin-5-yl)-5-((S)-6-oxaspiro[2.5]octan-1-yl)-4H-1,2,4-triazol-3-yl)-1-methoxypropane-2-sulfonamide [Example 102.0]”, 160 nM; under “(1R,2S)-1-(5-chloropyrimidin-2-yl)-N-(4-(4,6-dimethoxypyrimidin-5-yl)-5-((R)-6-oxaspiro[2.5]octan-1-yl)-4H-1,2,4-triazol-3-yl)-1-methoxypropane-2-sulfonamide or (1R,2S)-1-(5-chloropyrimidin-2-yl)-N-(4-(4,6-dimethoxypyrimidin-5-yl)-5-((S)-6-oxaspiro[2.5]octan-1-yl)-4H-1,2,4-triazol-3-yl)-1-methoxypropane-2-sulfonamide [Example 103.0]”, 39 nM.
